Assay results taken from patent publication US20250333397A1 (REMIX THERAPEUTICS INC., priority 2021, published 2025).
Where two headings read alike, the source gives them in different places.

How the values were obtained:
Assay type in all cases: cell-based, human
HTT mRNA = assay: RT-qPCR splicing assay, HTT canonical (CJ) and alternative (AJ) junction mRNA; conditions: Table 3A, A673 or K562 cells, 24 h treatment; for AC50: read-out: HTT AJ (AC50, increase in AJ mRNA); for IC50: read-out: HTT CJ (IC50, decrease in CJ mRNA)
Experimental: (§1) Compounds described herein were used to modulate RNA transcript abundance in cells. The expression of a target mRNA was measured by detecting the formation of an exon-exon junction in the canonical transcript (CJ). A compound mediated exon-inclusion event was detected by observing an increase in formation of a new junction with an alternative exon (AJ). Real-time qPCR assays were used to detect these splicing switches and interrogate the potency of various compounds towards different target genes. A high-throughput real time quantitative PCR (RT-qPCR) assay was developed to measure these two isoforms of the mRNA (CJ and AJ) for exemplary genes, such as HTT, SMN2, and MYB, together with a control housekeeping gene, GAPDH or GUSB or PPIA, used for normalization. Briefly, the A673 or K562 cell line was treated with various compounds described herein (e.g., compounds of Formula (I), (II), (III), (IV)). After treatment, the levels of the HTT, MYB, or SMN2 mRNA targets were determined from each sample of cell lysate by cDNA synthesis followed by qPCR.
(§2) The A673 cell line was cultured in DMEM with 10% FBS. Cells were diluted with full growth media and plated in a 96-well plate (15,000 cells in 100ul media per well). The plate was incubated at 37° C. with 5% CO2 for 24 hours to allow cells to adhere. An 11-point 3-fold serial dilution of the compounds was made in DMSO then diluted in media in an intermediate plate. Compounds were transferred from the intermediate plate to the cell plate with the top dose at a final concentration of 10 uM in the well. Final DMSO concentration was kept at or below 0.25%. The cell plate was returned to the incubator at 37° C. with 5% CO2 for an additional 24 hours.
(§3) The K562 cell line was cultured in IMDM with 10% FBS. For K562, cells were diluted with full growth media and plated in either a 96-well plate (50,000 cells in 50 uL media per well) or a 384-well plate (8,000-40,000 cells in 45 uL media per well). An 11-point 3-fold serial dilution of the compounds were made in DMSO then diluted in media in an intermediate plate.
(§4) Compound was transferred from the intermediate plate to the cell plate with the top dose at a final concentration of 10 uM in the well. Final DMSO concentration was kept at or below 0.25%.
(§5) Final volume was 100 uL for 96-well plate and 50 uL for 384-well plate. The cell plate was then placed in an incubator at 37° C. with 5% CO2 for 24 hours.
(§6) The cells were then gently washed with 50 uL-100 uL cold PBS before proceeding to addition of lysis buffer. 30 uL-50 μL of room temperature lysis buffer with DNAse I (and optionally RNAsin) was added to each well. Cells were shaken/mixed thoroughly at room temperature for 5-10 minutes for lysis to take place and then 3 uL-5 μL of room temperature stop solution was added and wells were shaken/mixed again. After 2-5 minutes, the cell lysate plate was transferred to ice for RT-qPCR reaction setup. The lysates could also be frozen at −80° C. for later use.
(§7) In some cases, a direct lysis buffer was used. An appropriate volume of 3× lysis buffer (10 mM Tris, 150 mM NaCl, 1.5%-2.5% Igepal and 0.1-1 U/uL RNAsin, pH 7.4) was directly added to either K562 or A673 cells in media and mixed by pipetting 3 times. The plates were then incubated at room temperature with shaking/rocking for 20-50 minutes to allow for lysis to take place. After this time, the cell lysate plate was transferred to ice to set up for the RT-qPCR reactions. The lysates could also be frozen at −80° C. for later use.
(§8) To set up 10 uL RT-qPCR reactions, cell lysates were transferred to 384-well qPCR plates containing the master mix according to the table below. The plates were sealed, gently vortexed, and spun down before the run. The volumes were adjusted accordingly in some instances where the reaction was carried in 20 μL. The table below summarizes the components of the RT-qPCR reactions: […]

MYB mRNA = assay: RT-qPCR splicing assay, MYB canonical (CJ) and alternative (AJ) junction mRNA; conditions: Table 3A, A673 or K562 cells, 24 h treatment; for AC50: read-out: MYB AJ (AC50, increase in AJ mRNA); for IC50: read-out: MYB CJ (IC50, decrease in CJ mRNA)
Experimental: as §1, §2, §3, §4, §5, §6, §7, §8

SMN2 mRNA = assay: RT-qPCR splicing assay panel, SMN2 canonical junction (CJ) mRNA; conditions: canonical junction (CJ) mRNA, RT-qPCR panel, Table 4A; read-out: SMN2, decrease in CJ mRNA levels, IC50
Experimental: as §1, §2, §3, §4, §5, §6, §7, §8

| Compound | IC50 (HTT mRNA; Homo sapiens, 24 h) | IC50 (MYB mRNA; Homo sapiens, 24 h) | IC50 (HTT mRNA) | IC50 (MYB mRNA) | IC50 (SMN2 mRNA) | AC50 (HTT mRNA; Homo sapiens, 24 h) | AC50 (MYB mRNA; Homo sapiens, 24 h) | AC50 (MYB mRNA) |
| --- | --- | --- | --- | --- | --- | --- | --- | --- |
| Cn1cnc(-c2ccc(-c3ccc(N4CC[C@@H](NC(C)(C)C)C4)nn3)c(O)c2)cc1=O [Compound 237, 6-(4-{6-[(3R)-3-(tert-butylamino)pyrrolidin-1-yl]pyridazin-3-yl}-3-hydroxyphenyl)-3-methylpyrimidin-4-one] | < 100 nM | 100 to 1000 nM |  |  |  | < 100 nM | 100 to 1000 nM |  |
| Cn1cnc(-c2ccc(-c3ccc(N4CC[C@H](NC(C)(C)C)C4)nn3)c(O)c2)cc1=O [Compound 236, 6-(4-{6-[(3S)-3-(tert-butylamino)pyrrolidin-1-yl]pyridazin-3-yl}-3-hydroxyphenyl)-3-methylpyrimidin-4-one] | 100 to 1000 nM | 100 to 1000 nM |  |  |  | 100 to 1000 nM | 100 to 1000 nM |  |
| Cc1ncc(-c2cc(O)c(-c3ccc(N4CC[C@H](N[C@H](C)C5CC5)C4)nn3)cc2F)s1 [Compound 394] |  |  | < 100 nM | < 100 nM | < 100 nM |  |  | < 100 nM |
| COc1cc(-c2ccc(-c3ccc(N4CC[C@@H](N(C)C5CCC5)C4)nn3)c(O)c2)cnn1 [Compound 238, 2-{6-[(3R)-3-[cyclobutyl(methyl)amino]pyrrolidin-1-yl]pyridazin-3-yl}-5-(6-methoxypyridazin-4-yl)phenol] | < 100 nM | 100 to 1000 nM |  |  |  | 100 to 1000 nM | 100 to 1000 nM |  |
| COc1cc(-c2cc(O)c(-c3ccc(N4CC[C@@H](N(C)C(C)(C)C)C4)nn3)cc2F)cnn1 [Compound 235, 2-{6-[(3R)-3-[tert-butyl(methyl)amino]pyrrolidin-1-yl]pyridazin-3-yl}-4-fluoro-5-(6-methoxypyridazin-4-yl)phenol] | < 100 nM | 100 to 1000 nM |  |  |  | < 100 nM | 100 to 1000 nM |  |

The next lines start with results.

| IC50 (HTT mRNA; Homo sapiens, 24 h) | IC50 (MYB mRNA; Homo sapiens, 24 h) | IC50 (HTT mRNA) | IC50 (MYB mRNA) | IC50 (SMN2 mRNA) | Compound | AC50 (HTT mRNA; Homo sapiens, 24 h) | AC50 (MYB mRNA; Homo sapiens, 24 h) | AC50 (MYB mRNA) |
| --- | --- | --- | --- | --- | --- | --- | --- | --- |
| < 100 nM | 100 to 1000 nM |  |  |  | COc1cc(-c2ccc(-c3ccc(N4CC[C@H](NC5(CF)CC5)C4)nn3)c(O)c2)cnn1 [Compound 241, 2-{6-[(3S)-3-{[1-(fluoromethyl)cyclopropyl]amino}pyrrolidin-1-yl]pyridazin-3-yl}-5-(6-methoxypyridazin-4-yl)phenol] | 100 to 1000 nM | 100 to 1000 nM |  |
|  |  |  | 100 to 1000 nM | < 100 nM | Cc1nnc(-c2ccc(-c3ccc(N4CC[C@@H](NCC5CC5)C4)nn3)c(O)c2)s1 [Compound 416] |  |  |  |
| < 100 nM | 100 to 1000 nM |  |  |  | COc1cc(-c2ccc(-c3ccc(N4CC[C@@H](NC5(CF)CC5)C4)nn3)c(O)c2)cnn1 [Compound 242, 2-{6-[(3R)-3-{[1-(fluoromethyl)cyclopropyl]amino}pyrrolidin-1-yl]pyridazin-3-yl}-5-(6-methoxypyridazin-4-yl)phenol] | 100 to 1000 nM | 100 to 1000 nM |  |
